Reference: PubChem BioAssay AID328 (DTP/NCI, 2004)
Values joined by “and” are separate entries in the source; they are usually repeats but may differ in a detail not shown here. Identical values can stand only once. Inconclusive results and toxic doses are left out. The calls were made as follows: active = survival T/C of 150% or more; inactive = T/C below 125% in these data.

Test system: BDF1 mice, P388 leukemia ip, median survival T/C
Assay: NCI In Vivo Anticancer Drug Screen. Data for tumor model P388 Leukemia (intraperitoneal) in B6D2F1 (BDF1) mice
Conditions: endpoint: median survival time, higher = longer survival
Procedure, shortened: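 Each value expresses how treatment altered survival: treated-mouse outcome over vehicle-mouse outcome, both groups bearing the transplanted tumour.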

[1] = dose: 12.5 mg/kg/injection, schedule: Q01DX009 (ip), vehicle: saline with Tween-80
[2] = dose: 25.0 mg/kg/injection, schedule: Q01DX009 (ip), vehicle: saline with Tween-80
[3] = dose: 50.0 mg/kg/injection, schedule: Q01DX009 (ip), vehicle: saline with Tween-80
[4] = dose: 50.0 mg/kg/injection, schedule: Q04DX003 (ip), vehicle: saline with Tween-80
[5] = dose: 100.0 mg/kg/injection, schedule: Q01DX009 (ip), vehicle: saline with Tween-80
[6] = dose: 100.0 mg/kg/injection, schedule: Q04DX003 (ip), vehicle: saline with Tween-80
[7] = dose: 200.0 mg/kg/injection, schedule: Q01DX009 (ip), vehicle: saline with Tween-80
[8] = dose: 200.0 mg/kg/injection, schedule: Q04DX003 (ip), vehicle: saline with Tween-80
[9] = dose: 400.0 mg/kg/injection, schedule: Q01DX009 (ip), vehicle: saline with Tween-80
[10] = dose: 400.0 mg/kg/injection, schedule: Q04DX003 (ip), vehicle: saline with Tween-80
[11] = dose: 12.5 mg/kg/injection, schedule: Q04DX003 (ip), vehicle: saline with Tween-80
[12] = dose: 25.0 mg/kg/injection, schedule: Q04DX003 (ip), vehicle: saline with Tween-80
[13] = dose: 100.0 mg/kg/injection, schedule: Q04DX003 (ip), vehicle: Klucel (hydroxypropylcellulose) (HPC)
[14] = dose: 200.0 mg/kg/injection, schedule: Q04DX003 (ip), vehicle: Klucel (hydroxypropylcellulose) (HPC)
[15] = dose: 400.0 mg/kg/injection, schedule: Q04DX003 (ip), vehicle: Klucel (hydroxypropylcellulose) (HPC)
[16] = dose: 100.0 mg/kg/injection, schedule: Q01DX001 (ip), vehicle: saline with Tween-80
[17] = dose: 200.0 mg/kg/injection, schedule: Q01DX001 (ip), vehicle: saline with Tween-80
[18] = dose: 400.0 mg/kg/injection, schedule: Q01DX001 (ip), vehicle: saline with Tween-80
[19] = dose: 100.0 mg/kg/injection, schedule: Q04DX003 (ip), vehicle: saline
[20] = dose: 200.0 mg/kg/injection, schedule: Q04DX003 (ip), vehicle: saline
[21] = dose: 400.0 mg/kg/injection, schedule: Q04DX003 (ip), vehicle: saline

Measured: T/C

CCCCNC(C)(C)COC(=O)/C=C/c1ccc(OCCCC)cc1
inactive: dose: 6.25 mg/kg/injection, schedule: Q01DX010 (ip), vehicle: saline 100 % of control | dose: 12.5 mg/kg/injection, schedule: Q01DX010 (ip), vehicle: saline 100 % of control | dose: 25.0 mg/kg/injection, schedule: Q01DX010 (ip), vehicle: saline 113 % of control | dose: 50.0 mg/kg/injection, schedule: Q01DX010 (ip), vehicle: saline 100 % of control

Cc1ccc(CC2NC(=O)NC2=O)cc1 (stereo not drawn)
inactive: dose: 6.25 mg/kg/injection, schedule: Q01DX009 (ip), vehicle: saline with Tween-80 104 % of control | [1] 88 % of control and 99 % of control | [2] 90 % of control and 98 % of control | [3] 98 % of control and 120 % of control | [4] 122 % of control | [5] 87 % of control and 118 % of control | [6] 122 % of control | [7] 111 % of control | [8] 105 % of control | [9] 96 % of control | [10] 105 % of control

CC1CN(Cc2ccc([N+](=O)[O-])cc2)CC(C)N1N (stereo not drawn)
inactive: dose: 3.12 mg/kg/injection, schedule: Q04DX003 (ip), vehicle: saline with Tween-80 96 % of control | dose: 6.25 mg/kg/injection, schedule: Q04DX003 (ip), vehicle: saline with Tween-80 116 % of control | [11] 107 % of control | [12] 107 % of control

C=C1C(C2(C)C(OC(C)=O)CC(=O)OC(C)(COC(C)=O)C2CC(=O)OC)C(OC=O)C(OC(=O)C(O)C(C)CC)C2(C)C(c3ccoc3)CC(=O)C12O (stereo not drawn)
inactive: dose: 3.75 mg/kg/injection, schedule: Q01DX009 (ip), vehicle: Klucel (hydroxypropylcellulose) (HPC) 94 % of control | dose: 7.5 mg/kg/injection, schedule: Q01DX009 (ip), vehicle: Klucel (hydroxypropylcellulose) (HPC) 93 % of control

CC(C)(C)OC(=O)NNC(=O)C(CSC(c1ccccc1)c1ccccc1)N1C(=O)c2ccccc2C1=O (stereo not drawn)
inactive: [13] 95 % of control | [14] 100 % of control | [15] 90 % of control

CCCCN(CCCC)CC(O)c1cc(-c2ccc(Cl)c(Cl)c2)cc2cc(Cl)ccc12 (stereo not drawn)
inactive: [1] 99 % of control | [2] 99 % of control | [3] 92 % of control and 97 % of control

O=S1(=O)CC(S(=O)(=O)c2ccccc2)C1
inactive: [16] 99 % of control | [17] 103 % of control | [18] 100 % of control

CCOC(=O)c1ccc(NC(N)=O)cc1
inactive: [12] 100 % of control | [4] 102 % of control | [6] 99 % of control

Cc1cc(N/N=C/c2ccc(N(CCCl)CCCl)cc2)c2cc3c(cc2n1)OCO3
inactive: [11] 114 % of control | [12] 105 % of control | [4] 115 % of control

O=C1c2ccccc2C(=O)N1/N=C/C=C/c1ccccc1
inactive: dose: 87.5 mg/kg/injection, schedule: Q01DX009 (ip), vehicle: saline with Tween-80 106 % of control | dose: 175.0 mg/kg/injection, schedule: Q01DX009 (ip), vehicle: saline with Tween-80 95 % of control | dose: 350.0 mg/kg/injection, schedule: Q01DX009 (ip), vehicle: saline with Tween-80 87 % of control

CN(C)c1ccc(/C=N/Nc2ncnc3nc[nH]c23)cc1
inactive: [6] 103 % of control | [8] 96 % of control | [10] 103 % of control

c1ccc(-c2nc3ncccn3n2)cc1
inactive: [2] 97 % of control | [3] 106 % of control and 111 % of control | [5] 104 % of control and 120 % of control | [7] 104 % of control and 112 % of control

O/N=C\c1c(O)ccc2ccccc12
inactive: [16] 106 % of control | [17] 105 % of control | [18] 106 % of control

CCOC(=S)SCc1cc(C(C)(C)C)c(O)c(C(C)(C)C)c1
inactive: dose: 100.0 mg/kg/injection, schedule: Q04DX002 (ip), vehicle: saline with Tween-80 100 % of control | dose: 200.0 mg/kg/injection, schedule: Q04DX002 (ip), vehicle: saline with Tween-80 99 % of control

C/C(=C\n1ccccc1=N)C(=O)c1ccc(F)cc1
inactive: [13] 95 % of control | [14] 90 % of control | [15] 104 % of control

C/C(Cc1ccccc1)=N/N(C)C
inactive: [12] 108 % of control | [4] 100 % of control | [6] 104 % of control

CCCCCC(Br)C(Br)CC(Br)C(Br)CCCCCCCC(=O)O (stereo not drawn)
inactive: dose: 100.0 mg/kg/injection, schedule: Q01DX001 (ip), vehicle: Klucel (hydroxypropylcellulose) (HPC) 100 % of control | dose: 200.0 mg/kg/injection, schedule: Q01DX001 (ip), vehicle: Klucel (hydroxypropylcellulose) (HPC) 109 % of control | dose: 400.0 mg/kg/injection, schedule: Q01DX001 (ip), vehicle: Klucel (hydroxypropylcellulose) (HPC) 104 % of control

CCCCCC(C[N+]1(C)CCOCC1)C(=O)/C=C/c1ccccc1 (stereo not drawn)
inactive: dose: 12.5 mg/kg/injection, schedule: Q01DX009 (ip), vehicle: saline 95 % of control | dose: 25.0 mg/kg/injection, schedule: Q01DX009 (ip), vehicle: saline 120 % of control | dose: 50.0 mg/kg/injection, schedule: Q01DX009 (ip), vehicle: saline 124 % of control

COc1cc(-c2ccc(N=Nc3c(O)c(C(=O)Nc4ccccc4OC)cc4ccccc34)c(OC)c2)ccc1N=Nc1c(O)c(C(=O)Nc2ccccc2OC)cc2ccccc12
inactive: dose: 100.0 mg/kg/injection, schedule: Q01DX005 (ip), vehicle: saline with Tween-80 97 % of control | dose: 200.0 mg/kg/injection, schedule: Q01DX005 (ip), vehicle: saline with Tween-80 92 % of control

O=S(=O)(O)CNc1ccccc1
inactive: [19] 100 % of control | [20] 109 % of control | [21] 95 % of control

Cc1ccc(S(=O)(=O)NC(=O)OC23COCN2COC3)cc1
inactive: [3] 116 % of control

COc1cccc(/C=C2\SC(=S)N(CCCN3CCOCC3)C2=O)c1OC
inactive: [3] 91 % of control | [5] 88 % of control

CN1CCN(c2nc3ccccc3n3nnnc23)CC1
inactive: dose: 18.75 mg/kg/injection, schedule: Q01DX009 (ip), vehicle: saline with Tween-80 103 % of control | dose: 37.5 mg/kg/injection, schedule: Q01DX009 (ip), vehicle: saline with Tween-80 100 % of control

O/N=c1/cc(-c2cccs2)ss1
inactive: [3] 109 % of control | [5] 104 % of control | [19] 117 % of control | [7] 87 % of control | [20] 118 % of control | [9] 97 % of control | [21] 124 % of control

CN1/C(=C/C=C(/N=C(C#N)C#N)c2ccccc2)C(C)(C)c2ccccc21
inactive: [3] 95 % of control | [5] 98 % of control | [7] 98 % of control
